Patent US6500800B1, “Composition and method for causing photodynamic damage to target cells” (priority 1996, dated 2002)
Like-named read-outs stand apart in the source and are kept apart here.

Test system: Human hepatoma PLC/PRF/5 cells
Assay: Photodynamic damage (PDD), survival rate of cells versus concentration after irradiation
Format: cell-based
Source text: A stands for (P10)-insulin-(chlorin e6); B stands for (β-galactosidase)-insulin-(chlorin e6); C stands for chlorin e6; […] Survival rate of human hepatoma PLC/PRF/5 cells plotted against concentration of compositions and chlorin e6 is depicted in FIGS. 2 and 3.

C=Cc1c(C)c2cc3nc(c(CC(=O)O)c4[nH]c(cc5nc(cc1[nH]2)C(C)=C5CC)c(C)c4C(=O)O)[C@@H](CCC(=O)O)[C@@H]3C [chlorin e6]
EC50 (irradiation dose of 12.3 kJ/m^2, read-out: EC50 value (concentration of a semi-maximal effect)): 11.5 µM | EC50 (irradiation dose of 96 kJ/m^2, read-out: EC50 value): 0.35 µM
